Data from the supplement of paper PMC10307832.

What was measured:
Assay in all cases: relative viability (nuclei count vs DMSO), 5 days (fraction); higher = more cells survive
NCI-H838 = tested on: NCI-H838
Outline: (§1)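 Lung cancer cell lines were seeded in 1536-well plates and dosed by pin tool the next day, with either a single drug or a fixed anchor-drug dose combined with five library-drug doses (not always all listed) spaced in √10 steps. Five days later, one step fixed the cells and stained their nuclei (final 0.05% Triton X-100, 1% formaldehyde, 1 ug/ml Hoechst), and nuclei were counted on 4× images. Relative viability is the nuclei count in treated wells divided by the count in vehicle wells, and each value is the median of duplicate plates.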

COR-L23 = tested on: COR-L23
Outline: as §1

HCC-366 = tested on: HCC-366
Outline: as §1

HCC-15 = tested on: HCC-15
Outline: as §1

NCI-H1993 = tested on: NCI-H1993
Outline: as §1

NCI-H2405 = tested on: NCI-H2405
Outline: as §1

HCC-78 = tested on: HCC-78
Outline: as §1

NCI-H2126 = tested on: NCI-H2126
Outline: as §1

EMC-BAC-2 = tested on: EMC-BAC-2
Outline: as §1

LC-2-ad = tested on: LC-2-ad
Outline: as §1

ABC-1 = tested on: ABC-1
Outline: as §1

NCI-H23 = tested on: NCI-H23
Outline: as §1

NCI-H2023 = tested on: NCI-H2023
Outline: as §1

SK-LU-1 = tested on: SK-LU-1
Outline: as §1

NCI-H2228 = tested on: NCI-H2228
Outline: as §1

ChaGo-K-1 = tested on: ChaGo-K-1
Outline: as §1

HOP-62 = tested on: HOP-62
Outline: as §1

HARA = tested on: HARA
Outline: as §1

## COc1cc2nccc(Oc3ccc(NC(=O)Nc4cc(C)on4)c(Cl)c3)c2cc1OC [Tivozanib] + CC(C)C[C@H](NC(=O)[C@H](Cc1ccccc1)NC(=O)c1cnccn1)B(O)O [Bortezomib] (partner 0.002 µM)
NCI-H838; first compound 0.005 µM
  relative viability: 0.939
NCI-H838; first compound 0.01581 µM
  relative viability: 0.877
NCI-H838; first compound 0.05 µM
  relative viability: 0.924
NCI-H838; first compound 0.5 µM
  relative viability: 0.723
COR-L23; first compound 0.005 µM
  relative viability: 0.88
COR-L23; first compound 0.01581 µM
  relative viability: 0.931
COR-L23; first compound 0.05 µM
  relative viability: 1.13
COR-L23; first compound 0.1581 µM
  relative viability: 1.01
COR-L23; first compound 0.5 µM
  relative viability: 0.869
HCC-366; first compound 0.005 µM
  relative viability: 1.01
HCC-366; first compound 0.01581 µM
  relative viability: 1.05
HCC-366; first compound 0.05 µM
  relative viability: 1.06
HCC-366; first compound 0.1581 µM
  relative viability: 1.05
HCC-366; first compound 0.5 µM
  relative viability: 1.05
HCC-15; first compound 0.005 µM
  relative viability: 0.98
HCC-15; first compound 0.01581 µM
  relative viability: 1.04
HCC-15; first compound 0.05 µM
  relative viability: 1.08
HCC-15; first compound 0.1581 µM
  relative viability: 1.04
HCC-15; first compound 0.5 µM
  relative viability: 1.03
NCI-H1993; first compound 0.005 µM
  relative viability: 0.981
NCI-H1993; first compound 0.01581 µM
  relative viability: 1.02
NCI-H1993; first compound 0.05 µM
  relative viability: 1.39
NCI-H1993; first compound 0.1581 µM
  relative viability: 0.647
NCI-H1993; first compound 0.5 µM
  relative viability: 1.13
NCI-H2405; first compound 0.005 µM
  relative viability: 0.87
NCI-H2405; first compound 0.01581 µM
  relative viability: 1.01
NCI-H2405; first compound 0.05 µM
  relative viability: 1.05
NCI-H2405; first compound 0.1581 µM
  relative viability: 1.02
NCI-H2405; first compound 0.5 µM
  relative viability: 0.886
HCC-78; first compound 0.005 µM
  relative viability: 0.383
HCC-78; first compound 0.01581 µM
  relative viability: 0.496
HCC-78; first compound 0.05 µM
  relative viability: 0.57
HCC-78; first compound 0.1581 µM
  relative viability: 0.549
HCC-78; first compound 0.5 µM
  relative viability: 0.452
NCI-H2126; first compound 0.005 µM
  relative viability: 1.1
NCI-H2126; first compound 0.01581 µM
  relative viability: 1.07
NCI-H2126; first compound 0.05 µM
  relative viability: 1.14
NCI-H2126; first compound 0.1581 µM
  relative viability: 0.811
NCI-H2126; first compound 0.5 µM
  relative viability: 1.11
EMC-BAC-2; first compound 0.005 µM
  relative viability: 1.05
EMC-BAC-2; first compound 0.01581 µM
  relative viability: 1.07
EMC-BAC-2; first compound 0.05 µM
  relative viability: 1.1
EMC-BAC-2; first compound 0.1581 µM
  relative viability: 0.769
EMC-BAC-2; first compound 0.5 µM
  relative viability: 1.08
LC-2-ad; first compound 0.005 µM
  relative viability: 0.951
LC-2-ad; first compound 0.01581 µM
  relative viability: 1.04
LC-2-ad; first compound 0.05 µM
  relative viability: 0.971
LC-2-ad; first compound 0.1581 µM
  relative viability: 0.867
LC-2-ad; first compound 0.5 µM
  relative viability: 0.843
ABC-1; first compound 0.005 µM
  relative viability: 0.315
ABC-1; first compound 0.01581 µM
  relative viability: 0.3
ABC-1; first compound 0.05 µM
  relative viability: 0.277
ABC-1; first compound 0.1581 µM
  relative viability: 0.304
ABC-1; first compound 0.5 µM
  relative viability: 0.288
NCI-H23; first compound 0.005 µM
  relative viability: 0.946
NCI-H23; first compound 0.01581 µM
  relative viability: 0.975
NCI-H23; first compound 0.05 µM
  relative viability: 1.1
NCI-H23; first compound 0.1581 µM
  relative viability: 0.785
NCI-H23; first compound 0.5 µM
  relative viability: 0.839
NCI-H2023; first compound 0.005 µM
  relative viability: 0.909
NCI-H2023; first compound 0.01581 µM
  relative viability: 1.07
NCI-H2023; first compound 0.05 µM
  relative viability: 1
NCI-H2023; first compound 0.1581 µM
  relative viability: 0.853
NCI-H2023; first compound 0.5 µM
  relative viability: 0.965
SK-LU-1; first compound 0.005 µM
  relative viability: 0.931
SK-LU-1; first compound 0.01581 µM
  relative viability: 1.26
SK-LU-1; first compound 0.05 µM
  relative viability: 1.2
SK-LU-1; first compound 0.1581 µM
  relative viability: 0.784
SK-LU-1; first compound 0.5 µM
  relative viability: 0.907
NCI-H2228; first compound 0.005 µM
  relative viability: 0.86
NCI-H2228; first compound 0.01581 µM
  relative viability: 0.859
NCI-H2228; first compound 0.05 µM
  relative viability: 1.02
NCI-H2228; first compound 0.1581 µM
  relative viability: 0.887
NCI-H2228; first compound 0.5 µM
  relative viability: 0.972
ChaGo-K-1; first compound 0.005 µM
  relative viability: 0.907
ChaGo-K-1; first compound 0.01581 µM
  relative viability: 1.08
ChaGo-K-1; first compound 0.05 µM
  relative viability: 1
ChaGo-K-1; first compound 0.1581 µM
  relative viability: 0.969
ChaGo-K-1; first compound 0.5 µM
  relative viability: 0.935
HOP-62; first compound 0.005 µM
  relative viability: 0.708
HOP-62; first compound 0.01581 µM
  relative viability: 0.659
HOP-62; first compound 0.05 µM
  relative viability: 0.548
HOP-62; first compound 0.1581 µM
  relative viability: 0.565
HOP-62; first compound 0.5 µM
  relative viability: 0.819
HARA; first compound 0.005 µM
  relative viability: 1.03
HARA; first compound 0.01581 µM
  relative viability: 1.18
HARA; first compound 0.05 µM
  relative viability: 1.08
HARA; first compound 0.1581 µM
  relative viability: 1.27
HARA; first compound 0.5 µM
  relative viability: 1.14
